Experimental data taken from ChEMBL document CHEMBL1133759, “6beta-Acyloxy(nor)tropanes: affinities for antagonist/agonist binding sites on transfected and native muscarinic receptors” (J Med Chem, 2000).

Columns and labels:
[1] = target: Muscarinic acetylcholine receptor; assay type: cell membranes, Rattus norvegicus, Membrane
[2] = target: Muscarinic acetylcholine receptor; assay: The binding affinity was measured as inhibition of binding of [3H]- oxotremorine-M to muscarinic acetylcholine receptor in rat cerebral cortical membranes.; assay type: cell membranes, Membrane
[3] = Ratio of affinity versus antagonist [3H]-QNB divided by affinity versus agonist [3H]OXO-M; assay type: functional
[4] = target: T1, Muscarinic acetylcholine receptor M3 (Homo sapiens, UniProt P20309); settings: CHO; at 100 µM
Target sequence in this assay (P20309 whole entry, looked up): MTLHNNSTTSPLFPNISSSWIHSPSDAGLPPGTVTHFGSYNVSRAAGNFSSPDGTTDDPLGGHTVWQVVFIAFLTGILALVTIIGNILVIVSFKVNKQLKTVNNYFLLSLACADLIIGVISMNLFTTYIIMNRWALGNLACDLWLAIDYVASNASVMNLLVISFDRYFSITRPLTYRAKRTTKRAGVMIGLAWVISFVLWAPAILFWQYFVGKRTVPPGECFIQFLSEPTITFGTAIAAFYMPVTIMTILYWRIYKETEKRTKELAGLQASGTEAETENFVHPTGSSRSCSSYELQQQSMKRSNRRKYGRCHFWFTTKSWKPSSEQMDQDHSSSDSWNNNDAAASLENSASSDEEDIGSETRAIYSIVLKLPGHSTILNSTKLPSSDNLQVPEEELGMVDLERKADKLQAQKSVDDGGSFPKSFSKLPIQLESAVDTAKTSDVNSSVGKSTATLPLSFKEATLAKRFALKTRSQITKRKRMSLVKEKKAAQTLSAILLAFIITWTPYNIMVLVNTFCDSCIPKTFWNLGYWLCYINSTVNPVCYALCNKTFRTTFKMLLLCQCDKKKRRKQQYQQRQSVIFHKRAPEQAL
Description: Inhibition of binding of [3H]- quinuclidinyl benzilate to Muscarinic acetylcholine receptor M3 in membranes of CHO cells at 100 uM compound concentration

[5] = target: T2, Muscarinic acetylcholine receptor M4 (Homo sapiens, UniProt P08173); assay type: cell membranes, CHO
T2 sequence (P08173 whole entry): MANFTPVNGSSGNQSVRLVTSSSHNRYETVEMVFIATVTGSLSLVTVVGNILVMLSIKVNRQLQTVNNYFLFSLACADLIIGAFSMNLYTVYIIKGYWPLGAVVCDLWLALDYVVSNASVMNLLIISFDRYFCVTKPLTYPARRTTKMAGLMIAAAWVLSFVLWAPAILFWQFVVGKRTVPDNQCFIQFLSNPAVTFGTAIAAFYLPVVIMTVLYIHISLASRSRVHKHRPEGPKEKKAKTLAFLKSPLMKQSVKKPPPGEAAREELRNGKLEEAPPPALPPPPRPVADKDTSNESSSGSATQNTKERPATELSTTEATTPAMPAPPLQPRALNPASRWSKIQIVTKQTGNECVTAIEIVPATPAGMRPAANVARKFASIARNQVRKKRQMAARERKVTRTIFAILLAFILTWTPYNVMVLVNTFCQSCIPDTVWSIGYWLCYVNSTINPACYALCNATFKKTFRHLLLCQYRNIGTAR

[6] = target: T3, Muscarinic acetylcholine receptor M1 (Homo sapiens) (UniProt P11229); settings: CHO; at 100 µM
T3 sequence (whole entry): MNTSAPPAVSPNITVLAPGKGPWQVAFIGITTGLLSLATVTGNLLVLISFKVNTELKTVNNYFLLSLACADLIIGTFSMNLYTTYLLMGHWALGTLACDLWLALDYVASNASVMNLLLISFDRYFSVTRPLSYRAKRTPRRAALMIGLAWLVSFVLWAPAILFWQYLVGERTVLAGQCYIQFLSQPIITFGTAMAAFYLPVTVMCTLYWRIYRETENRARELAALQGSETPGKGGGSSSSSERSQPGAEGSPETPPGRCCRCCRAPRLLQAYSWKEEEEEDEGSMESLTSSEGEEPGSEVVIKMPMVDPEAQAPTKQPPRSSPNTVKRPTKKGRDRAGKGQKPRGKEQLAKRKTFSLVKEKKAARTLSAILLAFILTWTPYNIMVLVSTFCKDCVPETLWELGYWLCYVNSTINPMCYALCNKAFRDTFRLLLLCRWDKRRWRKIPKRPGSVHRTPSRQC
Description: Inhibition of binding of [3H]- quinuclidinyl benzilate to Muscarinic acetylcholine receptor M1 in membranes of CHO cells at 100 uM compound concentration

[7] = target: T2, Muscarinic acetylcholine receptor M4; assay: Inhibition of [3H]- oxotremorine-M binding to human Muscarinic acetylcholine receptor M4 in CHO cell membranes
[8] = target: T4, Muscarinic acetylcholine receptor M2 (Homo sapiens, UniProt P08172); assay: Inhibition of [3H]- oxotremorine-M binding to human Muscarinic acetylcholine receptor M2 expressed in CHO cell membranes
T4 sequence (P08172 whole entry): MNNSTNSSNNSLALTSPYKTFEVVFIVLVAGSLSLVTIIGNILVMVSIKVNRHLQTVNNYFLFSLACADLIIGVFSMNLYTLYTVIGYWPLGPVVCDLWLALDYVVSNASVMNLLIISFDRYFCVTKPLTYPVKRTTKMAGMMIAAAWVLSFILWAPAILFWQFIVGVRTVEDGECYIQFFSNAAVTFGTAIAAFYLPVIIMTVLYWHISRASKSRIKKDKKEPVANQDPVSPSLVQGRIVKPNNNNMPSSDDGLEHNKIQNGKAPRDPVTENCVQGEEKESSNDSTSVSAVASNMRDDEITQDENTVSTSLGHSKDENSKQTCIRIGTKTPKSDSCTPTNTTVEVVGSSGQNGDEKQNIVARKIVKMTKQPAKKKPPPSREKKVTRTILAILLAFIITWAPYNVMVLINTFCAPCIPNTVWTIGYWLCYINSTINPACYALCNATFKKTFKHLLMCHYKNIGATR

[9] = target: T4, Muscarinic acetylcholine receptor M2; assay type: cell membranes, CHO
[10] = target: T5, Muscarinic acetylcholine receptor M1 (Homo sapiens, UniProt P11229); assay: The binding affinity was measured as inhibition of binding of [3H]- quinuclidinyl benzilate to Muscarinic acetylcholine receptor M1 in membranes of CHO cells; assay type: cell membranes
T5 sequence (P11229 whole entry): T3 sequence (whole entry)

[11] = target: T1, Muscarinic acetylcholine receptor M3; assay type: cell membranes, CHO
Target sequence in this assay (P20309 whole entry): as the sequence (P20309 whole entry, looked up) above

[12] = target: T5, Muscarinic acetylcholine receptor M1; assay: Inhibition of [3H]- oxotremorine-M binding to human Muscarinic acetylcholine receptor M1 expressed in CHO cell membranes; assay type: cell-based
[13] = target: T1, Muscarinic acetylcholine receptor M3; assay: The binding affinity was measured as inhibition of binding of [3H]- quinuclidinyl benzilate to m3 Muscarinic acetylcholine receptor M3 in membranes of CHO cells; assay type: cell membranes
Target sequence in this assay (P20309 whole entry): as the sequence (P20309 whole entry, looked up) above

[14] = target: T3, Muscarinic acetylcholine receptor M1 (Homo sapiens); assay: Inhibition of binding of [3H]- quinuclidinyl benzilate to Muscarinic acetylcholine receptor M1 in membranes of CHO cells at 100 uM; assay type: cell membranes
[15] = target: Muscarinic acetylcholine receptor
[16] = target: Muscarinic acetylcholine receptor; remark: listed apart in the source
Description: Inhibition of [3H]- quinuclidinyl benzilate binding to Muscarinic acetylcholine receptor of rat heart membranes.

[17] = target: Muscarinic acetylcholine receptor; assay: The binding affinity was measured as inhibition of binding of [3H]- quinuclidinyl benzilate to Muscarinic acetylcholine receptor; assay type: protein assay
[18] = target: T3, Muscarinic acetylcholine receptor M1 (Homo sapiens); settings: CHO

CCCC(=O)OC1CC2CCCC1N2C (stereo not given)
Ki [1]: 34 µM
Ki [2]: 1.2 µM
Ratio [3]: 28

CN(C)C(=O)OC1CC2CCCC1N2C (stereo not given)
Ratio [3]: > 60

C[C@@H]1O[C@H](C[N+](C)(C)C)C[C@H]1O [MUSCARINE]
inhibition [4]: 28%
Ki [5]: 1.4 µM
inhibition [6]: 2%
Ki [7]: 0.023 µM

CN1C2CCCC1C(OC(=O)C1CCCCC1)C2 (stereo not given)
Ki [8]: 1.6 µM
Ki [1]: 8.5 µM
Ki [5]: 0.3 µM
Ki [2]: 0.86 µM
Ki [9]: 0.73 µM
Ratio [3]: 13
Ki [7]: 0.7 µM
Ki [10]: 7 µM
Ki [11]: 3 µM
Ki [12]: 0.45 µM

CCCC(=O)OC1CC2CCCC1N2 (stereo not given)
Ki [1]: 30 µM
Ki [2]: 0.16 µM
Ratio [3]: 190

O=C(OC1CC2CCCC1N2)c1ccc([N+](=O)[O-])cc1 (stereo not given)
Ki [8]: 0.31 µM
Ki [1]: 2.2 µM
Ki [5]: 0.048 µM
Ki [13]: 0.45 µM
Ki [2]: 0.43 µM
Ki [9]: 0.36 µM
Ratio [3]: 5.1
Ki [7]: 0.45 µM
Ki [10]: 0.78 µM
Ki [12]: 0.029 µM

COc1ccccc1C(=O)OC1CC2CCCC1N2 (stereo not given)
Ki [1]: 53 µM
Ki [2]: 2.8 µM
Ratio [3]: 19

CCC(=O)OC1CC2CCCC1N2 (stereo not given)
Ki [8]: 0.19 µM
Ki [1]: 32 µM
Ki [5]: 0.66 µM
Ki [2]: 0.03 µM
Ki [9]: 3.1 µM
Ratio [3]: 1100
Ki [7]: 0.085 µM
inhibition [14]: 36%
Ki [11]: 11.4 µM
Ki [12]: 0.19 µM

O=C(OC1CC2CCCC1N2)C1CCCCC1 (stereo not given)
Ki [8]: 9 µM
Ki [1]: 25 µM
Ki [5]: 0.84 µM
Ki [2]: 1.9 µM
Ki [9]: 3.6 µM
Ratio [3]: 13
Ki [7]: 2.2 µM
Ki [10]: 20 µM
Ki [11]: 7.5 µM
Ki [12]: 0.97 µM

CN1C2CCCC1C(OC(=O)c1ccc([N+](=O)[O-])cc1)C2 (stereo not given)
Ki [2]: 14 µM
Ratio [3]: > 10

COc1ccccc1C(=O)OC1CC2CCCC1N2C (stereo not given)
Ki [1]: 31 µM
Ki [2]: 1.4 µM
Ratio [3]: 22

CN(C)C(=O)OC1CC2CCCC1N2 (stereo not given)
Ki [2]: 1.7 µM
Ratio [3]: > 60

CCC(=O)OC1CC2CCCC1N2C (stereo not given)
Ki [8]: 1.2 µM
Ki [5]: 0.96 µM
Ki [2]: 1.5 µM
inhibition [6]: 46%
Ki [9]: 2.4 µM
Ratio [3]: > 70
Ki [7]: 1.4 µM
Ki [11]: 7.4 µM
Ki [12]: 0.23 µM

O=C(OC1CC2CCCC1N2)c1ccccc1 (stereo not given)
Ki [8]: 1.7 µM
Ki [15]: 0.44 µM
Ki [1]: 0.8 µM
Ki [5]: 0.19 µM
Ki [2]: 0.65 µM
Ki [16]: 1.4 µM
Ki [9]: 0.3 µM
Ratio [3]: 1.2
Ki [7]: 0.5 µM
Ki [10]: 2.8 µM
Ki [11]: 1.3 µM
Ki [12]: 0.12 µM

O=C1CCCN1CC#CCN1CCCC1 [OXOTREMORINE]
Ki [8]: 0.038 µM
Ki [15]: 0.006 µM
Ki [1]: 58 µM
inhibition [4]: 28%
Ki [5]: 0.16 µM
Ki [2]: 0.013 µM
inhibition [6]: 9%
Ki [16]: 0.33 µM
Ki [9]: 0.66 µM
Ratio [3]: 4500
Ki [7]: 0.0015 µM
Ki [12]: 0.017 µM

CS(=O)(=O)OC1CC2CCCC1N2 (stereo not given)
Ki [2]: 2.7 µM
Ratio [3]: > 100

CN1C2CCCC1C(OC(=O)OCC(Cl)(Cl)Cl)C2 (stereo not given)
Ki [8]: 0.92 µM
Ki [1]: 23 µM
Ki [5]: 0.042 µM
Ki [2]: 0.72 µM
Ki [9]: 0.82 µM
Ratio [3]: 31
Ki [7]: 2.3 µM
Ki [10]: 27 µM
Ki [11]: 6.7 µM
Ki [12]: 1 µM

CC(=O)OC1CC2CCCC1N2 (stereo not given)
Ki [8]: 0.007 µM
Ki [15]: 0.00095 µM
Ki [2]: 0.002 µM
Ki [16]: 0.4 µM
Ki [17]: 22 µM
Ratio [3]: 11000
Ki [7]: 0.004 µM
Ki [12]: 0.0046 µM

CN1C2CCCC1C(OS(C)(=O)=O)C2 (stereo not given)
Ki [2]: 2.2 µM
Ratio [3]: > 100

CN1C2CCCC1C(OC(=O)Nc1ccccc1)C2 (stereo not given)
Ki [2]: 5.1 µM
Ratio [3]: > 20

O=C(Nc1ccccc1)OC1CC2CCCC1N2 (stereo not given)
Ki [2]: 4.3 µM
Ratio [3]: > 25

CC(=O)OC1CC2CCCC1N2C (stereo not given)
Ki [8]: 4.4 µM
Ki [15]: 0.092 µM
Ki [1]: 280 µM
Ki [2]: 0.86 µM
inhibition (at 100uM) [18]: 11%
Ki [16]: 17 µM
Ratio [3]: 330
Ki [7]: 0.9 µM
Ki [12]: 2.3 µM

CN1C2CCCC1C(OC(=O)c1ccccc1)C2 (stereo not given)
Ki [8]: 1.3 µM
Ki [15]: 0.79 µM
Ki [1]: 1.8 µM
Ki [5]: 0.41 µM
Ki [2]: 0.86 µM
Ki [16]: 1.4 µM
Ki [9]: 0.26 µM
Ratio [3]: 2.1
Ki [7]: 0.91 µM
Ki [10]: 7.7 µM
Ki [11]: 3.2 µM
Ki [12]: 0.27 µM

COc1ccc(C(=O)OC2CC3CCCC2N3C)cc1 (stereo not given)
Ki [2]: 7.3 µM
Ratio [3]: > 15

COc1ccc(C(=O)OC2CC3CCCC2N3)cc1 (stereo not given)
Ki [2]: 1.7 µM
Ratio [3]: > 60
